Measured values published in the METLIN SMRT retention time set (Domingo-Almenara et al. 2019).

assay: gradient 5% acetonitrile 3 min, to 50% in 2 min, to 85% in 15 min, held 3 min, 100 µL/min; settings: column: Zorbax Extend-C18 2.1 x 50 mm; eluents: water / acetonitrile, 0.1% formic acid
Outline: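 The system's dead and dwell volumes were 40 μL and 900 μL, with a Zorbax Extend-C18 column (2.1 × 50 mm, 1.8 μm) run at 100 μL/min in water and acetonitrile containing 0.1% formic acid each. Pure standards were analyzed in mixtures of ~100 molecules by HPLC–quadrupole time-of-flight mass spectrometry in positive and negative ionization mode. Retention time was assigned from computationally picked, manually inspected adduct peaks.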

| RP-LC retention time [s] | Compound |
| --- | --- |
| 967 | CC1=NS(=O)(=O)N(C)C=C1C(=O)OCc1cccc(C)c1 |
| 571 | CS(=O)(=O)N1C[C@H]2CCN(Cc3c(F)cccc3Cl)C[C@H]21 |
| 819 | COc1cccc(N2C=C(C(=O)N3CCCC3)S(=O)(=O)c3ccc(F)cc32)c1 |
| 922 | O=C(NCCc1c[nH]c2ccc(Cl)cc12)c1ccc(-n2nnc3cccnc32)cc1 |
| 898 | CCN(CC)C(=O)N1CCO[C@@H](COc2ccccn2)[C@@H]1c1ccccc1 |
| 778 | Cc1noc(C)c1CNC(=O)c1cc(Cl)ccc1F |
| 1240 | CCc1ccc(-c2noc(CN3C(=O)COc4cc(Cl)ccc43)n2)cc1 |
| 751 | CCCNC(=O)N1CCc2nc(-c3ccccc3)ncc2C1 |
| 728 | Cc1cnn(CCC(=O)N2CCCCCCNC(=O)[C@@H]3CCCC[C@@H]32)c1 |
| 881 | Cc1cccc(Cn2nc3ccc(S(=O)(=O)N4CCCC4)cn3c2=O)c1 |
| 594 | COC(=O)c1c(C)[nH]c(C(=O)N2CCC(CC(=O)N3CCN(C4CCCCC4)CC3)CC2)c1C |
| 641 | CCn1nccc1C(=O)Nc1nnc(-c2ccsc2)o1 |
| 718 | CC(C)NC(=O)CCC(=O)N1CCCn2nc(-c3cn(C)c4ccccc34)cc21 |
| 618 | O=S(=O)(NCC(c1cccnc1)N1CCN(c2ccc(F)cc2)CC1)c1cccs1 (configuration not stated) |
| 1100 | Cc1ccc(C(=O)Nc2cccc(OCc3nnc(-c4ccc(Cl)cc4)o3)c2)s1 |
| 1020 | Cc1nc2cc(-c3noc(-c4ncoc4-c4ccccc4)n3)ccc2o1 |
| 701 | O=C(NC1CC1)C1CCN(Cc2cc3ccccc3n2Cc2ccc(F)cc2)CC1 |
| 952 | Cc1sc(NC(=O)c2ccccc2)nc1-c1ccc2c(c1)N(C)C(=O)CO2 |
| 746 | COc1ccc(-c2cc3c(=O)n(CC(=O)N4CCCC4)ncn3n2)cc1 |

| RP-LC retention time [s] | Compound |
| --- | --- |
| 664 | Cc1noc(C)c1CC(=O)NCC1Cn2cccc2C(=O)N1CC(C)C (configuration not stated) |
| 726 | Cc1ccc(-c2ncccc2CNS(=O)(=O)c2cccc(C)c2)cc1 |
| 630 | CCn1c(CCc2ccccc2NS(=O)(=O)c2c(C)n[nH]c2C)nc2ccccc21 |
| 684 | Cc1noc(C2CN(C(=O)c3cnn(C)c3)CC23CCCC3)n1 (configuration not stated) |
| 756 | CCN1C(=O)c2cccnc2Sc2cc(NC(=O)c3ccc(OC)nc3)ccc21 |
| 724 | COc1ccc(C2Cn3cnc(C(=O)N4CCC(C(=O)NCC(C)C)CC4)c3CO2)cc1 (configuration not stated) |
| 918 | Cc1ccccc1CNC(=O)C1=C2CCCN2c2ccc(F)cc2S1(=O)=O |
| 690 | OC(CN1CCN(c2cccc(Cl)c2)CC1)c1ccc2c(c1)OCO2 (configuration not stated) |
| 843 | Cc1cc2c(cc1S(=O)(=O)N1CCCC1C(=O)Nc1ccc(Cl)cc1F)OCC(=O)N2 (configuration not stated) |
| 592 | COCCNC(=O)CN1CCN(c2cc(C(=O)O)c3cc(NC(=O)c4ccccc4)ccc3n2)CC1 |
| 987 | COc1ccc(CN(CCC2(C(C)C)CCOC(C)(C)C2)C(C)=O)cc1 (configuration not stated) |
| 804 | CN(CC1CCOCC1)C(=O)Nc1cc(F)c(F)c(F)c1 |
| 804 | Cc1ccn2c(NC(=O)COc3ccc(Cl)cc3Cl)c(-c3ccc(F)cc3)nc2c1 |
| 822 | Cc1cc(C2CCCN2C(=O)Nc2ccc(C)c(F)c2)on1 (configuration not stated) |
| 779 | CCCn1cc(CCNS(=O)(=O)c2c(C)noc2C)c2cccnc21 |
| 563 | O=C(c1ccccc1Br)N1CCc2nc[nH]c2C1 |
| 586 | O=C(c1ccc(N2CCOCC2)nn1)N1CCN(c2ncccn2)CC1 |
| 886 | CCOC(=O)CNC(=O)N1CCc2c([nH]c3ccc(OC)cc23)C1c1ccc(OC)cc1 (configuration not stated) |

Continued, compound first:

| Compound | RP-LC retention time [s] |
| --- | --- |
| CN1C(=O)NC2(CCN(C(=O)C3c4ccccc4Oc4ccccc43)CC2)C1=O | 705 |
| Cc1noc(-c2ccc(OC3CN(C(=O)NCC(C)C)C3)cc2)n1 | 781 |
| Cc1cccc(-c2noc(Cc3nnc(-c4ccccc4)o3)n2)c1 | 1030 |
| CCOc1ccc(N2C=C(C(=O)N3CCCC3)S(=O)(=O)c3ccc(F)cc32)cc1 | 872 |
| Cc1ccc(CN2N=C(C(=O)N3CCCCC3)S(=O)(=O)c3ccccc32)cc1 | 974 |
| Cc1cccc2sc(NC(=O)C3(c4cccs4)CCOCC3)nc12 | 987 |
| COc1ccc(CNC(=O)c2ccc3c(c2)N(C)C(=O)c2ccccc2O3)cc1 | 863 |
| CCC(C)C1Nc2ccc(C(=O)NCCCOC)cc2NC1=O (configuration not stated) | 653 |
| O=C(Nc1ccc2nc3n(c(=O)c2c1)CCCC3)Nc1ccccc1Br | 735 |
| Cn1nc(C(=O)N2CCCC(C(=O)N3CCCC3)C2)c2c1CCN(C(=O)c1ccccc1Cl)C2 (configuration not stated) | 662 |
| COc1ccc(-c2cc3c4nn(CC(=O)Nc5cccc(C)c5C)c(=O)n4ccn3n2)cc1 | 840 |
| CC(=O)N1CCC(C(=O)N2CCCN(c3cc(-c4ccc(Cl)cc4)[nH]n3)CC2)CC1 | 648 |
| Cc1nnc(-c2cccc(Cl)c2)nc1N1CCC(C)CC1 | 986 |
| COc1ccc(Cc2nc3nccc(-c4ccco4)n3n2)cc1 | 855 |
| O=C(Nc1ccc2nc3n(c(=O)c2c1)CCCCC3)C(=O)N1CCCCCC1 | 729 |
| CSc1nc(NC(C)C)c(C#N)c(-c2ccccc2)n1 | 1190 |
| O=C(Cn1ccc2sccc2c1=O)Nc1ccc(Br)cc1F | 832 |
| O=C(NCc1ccccc1)C1CCN(Cc2nncn2-c2ccccc2F)CC1 | 570 |
| CCC(C(=O)c1ccccc1)n1c(N2CCOCC2)nc2c1c(=O)n(C)c(=O)n2C (configuration not stated) | 806 |
| CCc1nn2c(CNC(=O)c3cccc(OC)c3)c(-c3ccccc3)nc2s1 | 885 |
| Cc1nc(Nc2ncc3c(n2)CC(c2ccc(F)cc2)CC3=O)nc2ccccc12 (configuration not stated) | 756 |
| O=C(NCC#CCN1CCc2ccccc2C1)c1c(F)cccc1Cl | 565 |
| CCOc1cc(C(=O)N2CCN(c3c(C)n(C)c(=O)n(C)c3=O)CC2)cc(OCC)c1OCC | 810 |
| CC(C)(Oc1ccc(Cl)cc1)C(=O)NCCNc1cc(-n2cccn2)ncn1 | 814 |
| CC1(C)CC(=O)c2cn(-c3ccc(F)cc3)c(=O)c(C(=O)NC3CC3)c2C1 | 814 |
| Cc1ccccc1NC(=O)N1CCc2nc(-c3ccc(Cl)cc3)ncc2C1 | 1020 |
| CCCNC(=O)N1CCC(c2cnn(-c3ccccc3)c2)CC1 | 779 |
| CCN1CCCn2cc(S(=O)(=O)N3CCN(Cc4ccccc4)CC3)cc2C1=O | 587 |
| CCCN1CN=C(Nc2nc(C)c3cccc(OC)c3n2)NC1 | 644 |
| O=C(C1CC(=O)N(c2n[nH]c3cccc(F)c23)C1)N1CCc2ccccc2C1 (configuration not stated) | 752 |
